Test [1] addresses T1, Oxysterols receptor LXR-beta (Homo sapiens, UniProt P55055).
T1 sequence (P55055 whole entry): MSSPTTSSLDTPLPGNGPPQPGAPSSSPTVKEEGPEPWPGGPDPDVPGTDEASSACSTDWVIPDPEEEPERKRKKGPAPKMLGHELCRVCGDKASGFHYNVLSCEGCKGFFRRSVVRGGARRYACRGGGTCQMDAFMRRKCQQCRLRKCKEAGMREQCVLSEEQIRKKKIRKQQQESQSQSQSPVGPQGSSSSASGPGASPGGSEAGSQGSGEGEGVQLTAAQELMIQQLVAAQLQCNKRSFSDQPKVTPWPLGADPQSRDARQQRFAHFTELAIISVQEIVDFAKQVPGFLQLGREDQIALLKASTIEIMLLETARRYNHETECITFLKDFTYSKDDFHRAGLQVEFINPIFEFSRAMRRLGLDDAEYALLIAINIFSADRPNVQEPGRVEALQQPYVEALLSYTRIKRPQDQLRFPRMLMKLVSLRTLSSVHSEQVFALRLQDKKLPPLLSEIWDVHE
Format: functional, cell-based.

Test [2] addresses 1-phosphatidylinositol 4,5-bisphosphate phosphodiesterase gamma-1 (Homo sapiens, UniProt P19174). The test is described as follows: Counterscreen for inhibitors of phospholipase C isozymes (PLC-B3): Fluorescence-based biochemical high throughput dose response assay to identify inhibitors of phospholipase C isozymes (PLC-gamma1). For orientation: Counterscreens check selectivity or assay interference.

The target in test [3] is 1-phosphatidylinositol 4,5-bisphosphate phosphodiesterase beta-3 (Homo sapiens, UniProt Q01970). The test is described as follows: Fluorescence-based biochemical high throughput dose response assay to identify inhibitors of phospholipase C isozymes (PLC-B3).
Another test deals with HEK293. The test is described as follows: viability loss in HEK293T cells – cell-based, ATP luminescence, cherry-pick samples, cytotoxicity control, dose response (AID 687005).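 Also: cells exposed to compound for 48 hours.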 Format: functional. The note with it: Homo sapiens.
Test [4] is described as follows: HEK293 Cytotoxicity Assay Measured in Cell-Based System Using Plate Reader - 7071-01_Inhibitor_Dose_CherryPick_Activity_Set2. Format: functional.
Test [5] can be described thus: viability loss in HepG2 hepatoma cells – cell-based, cherry-picks, set 5, cytotoxicity control, dose response (AID 1053118). Format: functional.
Test [6] is described as follows: viability loss in HEK293 kidney cells – cell-based, cherry-picks, set 5, cytotoxicity control, dose response (AID 1053117). It is filed as functional.
The nature of test [7]: microbe, parasite or virus in culture. Format: functional. The note with it: Mycobacterium tuberculosis.
Another test addresses Nonstructural protein 1 (Influenza A virus, UniProt Q194T2). It is filed as functional, Influenza A virus (A/California/07/2009(H1N1)).
Test [8] can be described thus: HGIII-sPLA2 enzyme inhibition potency – biochemical, QFRET, IC50, dose response (AID 743457).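 Also: green fluorescence rise as the enzyme cleaves BODIPY PC-A2 in liposomes.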
A short description of test [9]: potency of ADAM10 substrate cleavage blockers – biochemical, QFRET, dose response (AID 743254).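 Also: ADAM10 enzyme with the DM2 quenched FRET peptide as substrate; EDANS fluorescence gain as the protease cuts the substrate; inhibitor potency against ADAM10 proteolytic activity.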
Test [10] addresses Disintegrin and metalloproteinase domain-containing protein 17 (Homo sapiens, UniProt P78536). In words: inhibition of ADAM17 substrate cleavage – biochemical, quenched FRET substrate, counter-screen for ADAM10 exosite inhibitor project, dose response (AID 743253).
A further test has as its target Large T antigen (Simian virus 40, UniProt P03070). Format: functional, Betapolyomavirus macacae.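 Also: Confirmatory-stage PubChem screen for compounds that inhibit SV40 T antigen.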
For test [11], the target named is Intestinal-type alkaline phosphatase (Mus musculus, UniProt P24822). The test is described as follows: PubChem AID 488785. Format: functional.
Test [12] addresses T2, Alkaline phosphatase, tissue-nonspecific isozyme (Homo sapiens, UniProt P05186).
T2 sequence (P05186 whole entry): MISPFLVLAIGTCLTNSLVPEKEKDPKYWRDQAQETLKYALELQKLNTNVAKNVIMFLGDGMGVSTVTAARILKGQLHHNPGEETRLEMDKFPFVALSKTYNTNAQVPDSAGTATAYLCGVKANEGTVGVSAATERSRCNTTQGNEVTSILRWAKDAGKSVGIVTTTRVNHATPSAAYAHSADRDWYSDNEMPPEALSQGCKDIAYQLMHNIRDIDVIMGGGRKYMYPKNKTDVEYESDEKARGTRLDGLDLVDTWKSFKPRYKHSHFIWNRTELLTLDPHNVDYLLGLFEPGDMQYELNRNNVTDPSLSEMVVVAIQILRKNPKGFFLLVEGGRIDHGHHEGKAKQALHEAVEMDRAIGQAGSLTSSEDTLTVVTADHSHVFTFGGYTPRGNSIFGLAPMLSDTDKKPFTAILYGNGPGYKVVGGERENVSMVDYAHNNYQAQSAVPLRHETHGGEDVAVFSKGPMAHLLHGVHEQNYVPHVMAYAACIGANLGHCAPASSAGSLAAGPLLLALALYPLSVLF
The test is described as follows: TNAP enzyme inhibition by screening hits, dose response, selectivity assay for mouse IAP inhibitor project, biochemical, human TNAP, uHTS hits (AID 488906). Format: functional.

The target of test [13] is Intestinal-type alkaline phosphatase (Homo sapiens, UniProt P09923). The test is described as follows: inhibition of human intestinal alkaline phosphatase – biochemical, dose response (AID 488876). It is filed as functional.
Test [14] deals with Vero. In words: viability of Vero cells under compound – cytotoxicity control for flavivirus capping enzyme inhibitors (AID 588742). The following applies: Chlorocebus sabaeus. Format: functional.
The target in another test is Genome polyprotein (dengue virus type 2, UniProt P29990). In words: flavivirus cap methylation enzyme inhibition – biochemical, confirmation dose response, primary screen (AID 588689). It is filed as functional.
Test [15] can be described thus: reduction of Shn3 3'UTR-driven luciferase in osteoblasts – cell-based, Clone20 osteoblasts, firefly luciferase, cherry-picked, dose response (AID 624132).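 Also: firefly luciferase luminescence from reporter carrying the Shn3 3'UTR in osteoblasts.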 Format: functional.
A short description of test [16]: non-specific 3'UTR reporter inhibition in Clone20-Shn3RL – cell-based, Renilla luciferase, cherry-picked, counter-screen for Shn3 inhibitor project, dose response (AID 624133). Format: functional.
The target of the next test is T3, Caspase-6 (Homo sapiens, UniProt P55212).
T3 sequence (P55212 whole entry): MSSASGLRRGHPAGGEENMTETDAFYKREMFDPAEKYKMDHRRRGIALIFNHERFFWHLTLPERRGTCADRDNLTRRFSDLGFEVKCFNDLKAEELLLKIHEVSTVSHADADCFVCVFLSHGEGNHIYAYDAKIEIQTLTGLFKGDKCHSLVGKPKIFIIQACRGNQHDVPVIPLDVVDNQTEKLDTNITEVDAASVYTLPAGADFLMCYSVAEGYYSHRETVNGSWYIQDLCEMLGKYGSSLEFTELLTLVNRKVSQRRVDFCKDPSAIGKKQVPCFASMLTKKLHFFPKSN
The test is described as follows: inhibition of CASP6 peptide cleavage – biochemical, VEID-R110 fluorescence, cherry-pick, dose response (AID 720632).

Test [17] concerns the target Histone-lysine N-methyltransferase NSD2 (Homo sapiens, UniProt O96028). Format: biochemical.
Test [18] deals with T4, Aryl hydrocarbon receptor (Homo sapiens, UniProt P35869).
T4 sequence (P35869 whole entry): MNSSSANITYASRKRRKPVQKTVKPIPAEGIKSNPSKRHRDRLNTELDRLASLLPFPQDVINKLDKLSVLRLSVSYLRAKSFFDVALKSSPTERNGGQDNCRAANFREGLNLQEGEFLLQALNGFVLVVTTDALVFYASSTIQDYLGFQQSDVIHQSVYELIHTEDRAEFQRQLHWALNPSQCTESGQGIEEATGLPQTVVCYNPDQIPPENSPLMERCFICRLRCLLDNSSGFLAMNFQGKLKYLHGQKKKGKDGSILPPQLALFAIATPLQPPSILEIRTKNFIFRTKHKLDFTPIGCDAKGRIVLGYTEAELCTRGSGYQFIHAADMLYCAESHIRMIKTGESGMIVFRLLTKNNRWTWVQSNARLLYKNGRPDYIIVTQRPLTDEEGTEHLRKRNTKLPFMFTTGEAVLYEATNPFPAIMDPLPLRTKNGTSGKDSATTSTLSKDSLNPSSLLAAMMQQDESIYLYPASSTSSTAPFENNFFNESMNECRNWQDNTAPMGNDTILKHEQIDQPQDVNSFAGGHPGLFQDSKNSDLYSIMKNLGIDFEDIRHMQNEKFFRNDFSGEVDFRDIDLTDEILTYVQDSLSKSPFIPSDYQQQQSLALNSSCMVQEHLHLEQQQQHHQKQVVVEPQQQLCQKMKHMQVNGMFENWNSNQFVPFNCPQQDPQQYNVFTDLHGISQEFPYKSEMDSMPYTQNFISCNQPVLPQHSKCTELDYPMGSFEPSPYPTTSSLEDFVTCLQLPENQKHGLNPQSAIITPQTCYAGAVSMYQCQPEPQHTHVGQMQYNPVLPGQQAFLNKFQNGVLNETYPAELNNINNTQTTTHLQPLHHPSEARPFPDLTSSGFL
In words: Luminescence-based cell-based high throughput dose response assay for activators of the Aryl Hydrocarbon Receptor (AHR). [Related pubchem assays: 2796 (Primary screen (AHR activators in singlicate)), 2845 (Confirmation screen (AHR activators in triplicate)), 434939 (Counterscreen (PXR activators in triplicate)), 2804 (Summary (AHR activators))]. It is filed as ADME.

Test [19] deals with Vero. The test is described as follows: mammalian cell viability reduction – secondary assay, cytotoxicity control for West Nile virus antiviral project, dose response (AID 1650). It is filed as functional. The following applies: Chlorocebus sabaeus.
Test [20] deals with Vero. In words: cells. It is filed as functional, cell-based. The following applies: Chlorocebus sabaeus.
Test [21] has as its system Vero. The test is described as follows: cells. Format: functional. The following applies: Chlorocebus sabaeus.
The nature of test [22]: reduced cellular PGC1a acetyl-lysine signal – cell-based, cherry-picked samples, dose response (AID 720514).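 Also: potency may reflect raised or lowered acetylation signal.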 Format: functional.
The next test concerns the target Transthyretin (Homo sapiens, UniProt P02766). In words: Luminescence-based cell-based high throughput dose response assay to identify activators of Transthyretin (TTR) transcription. It is filed as functional.
In the next test the target is fMet-Leu-Phe receptor (Homo sapiens, UniProt P21462). The test is described as follows: formyl peptide receptor binders – dose response (AID 519). Format: functional.

The results in this text go back to ChEMBL document CHEMBL1201862, “PubChem BioAssay data set” (2004).

Active and inactive are the calls of the source.

The EC50 is the concentration giving half of the maximal effect. As a reminder, the IC50 is the concentration that gives 50% inhibition. As a reminder, the AC50 is the concentration at which the activity in the assay is half-maximal. Usually Ki stands for the dissociation constant of the complex between target and ligand, obtained from inhibition or displacement.

1-phosphatidylinositol 4,5-bisphosphate phosphodiesterase beta-3, sequence (Q01970 whole entry): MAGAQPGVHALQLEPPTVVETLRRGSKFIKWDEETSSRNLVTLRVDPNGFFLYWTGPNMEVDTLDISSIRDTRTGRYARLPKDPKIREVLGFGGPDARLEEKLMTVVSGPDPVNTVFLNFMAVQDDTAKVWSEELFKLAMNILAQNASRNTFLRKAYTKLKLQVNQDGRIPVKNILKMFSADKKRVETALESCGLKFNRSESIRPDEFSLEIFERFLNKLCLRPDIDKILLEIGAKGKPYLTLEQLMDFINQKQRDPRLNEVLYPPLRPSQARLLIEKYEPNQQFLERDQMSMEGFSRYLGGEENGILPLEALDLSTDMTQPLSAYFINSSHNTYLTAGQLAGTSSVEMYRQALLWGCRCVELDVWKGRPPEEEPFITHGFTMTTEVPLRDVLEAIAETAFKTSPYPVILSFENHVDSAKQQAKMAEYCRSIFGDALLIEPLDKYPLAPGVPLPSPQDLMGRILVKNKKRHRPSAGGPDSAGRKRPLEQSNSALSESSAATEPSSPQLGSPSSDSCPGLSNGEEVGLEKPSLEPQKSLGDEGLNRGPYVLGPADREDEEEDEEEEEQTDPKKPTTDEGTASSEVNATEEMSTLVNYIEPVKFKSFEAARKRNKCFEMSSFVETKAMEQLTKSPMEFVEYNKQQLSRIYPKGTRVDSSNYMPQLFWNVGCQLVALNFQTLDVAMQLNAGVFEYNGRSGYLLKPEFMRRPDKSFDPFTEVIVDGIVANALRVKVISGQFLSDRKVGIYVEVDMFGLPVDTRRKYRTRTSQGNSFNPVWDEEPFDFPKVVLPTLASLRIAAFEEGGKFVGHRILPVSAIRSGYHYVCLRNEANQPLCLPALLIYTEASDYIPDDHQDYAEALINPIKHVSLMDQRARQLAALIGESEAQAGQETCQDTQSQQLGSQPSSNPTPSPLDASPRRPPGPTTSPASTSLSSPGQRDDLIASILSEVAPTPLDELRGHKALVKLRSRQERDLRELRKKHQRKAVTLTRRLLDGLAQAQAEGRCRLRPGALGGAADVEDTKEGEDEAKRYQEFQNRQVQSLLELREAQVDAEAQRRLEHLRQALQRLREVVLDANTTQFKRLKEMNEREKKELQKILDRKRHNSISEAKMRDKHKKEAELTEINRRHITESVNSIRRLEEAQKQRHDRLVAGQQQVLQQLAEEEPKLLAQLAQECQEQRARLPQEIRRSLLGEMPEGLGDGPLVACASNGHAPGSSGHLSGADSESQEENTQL
Disintegrin and metalloproteinase domain-containing protein 17, sequence (P78536 whole entry, the tested form may be a part): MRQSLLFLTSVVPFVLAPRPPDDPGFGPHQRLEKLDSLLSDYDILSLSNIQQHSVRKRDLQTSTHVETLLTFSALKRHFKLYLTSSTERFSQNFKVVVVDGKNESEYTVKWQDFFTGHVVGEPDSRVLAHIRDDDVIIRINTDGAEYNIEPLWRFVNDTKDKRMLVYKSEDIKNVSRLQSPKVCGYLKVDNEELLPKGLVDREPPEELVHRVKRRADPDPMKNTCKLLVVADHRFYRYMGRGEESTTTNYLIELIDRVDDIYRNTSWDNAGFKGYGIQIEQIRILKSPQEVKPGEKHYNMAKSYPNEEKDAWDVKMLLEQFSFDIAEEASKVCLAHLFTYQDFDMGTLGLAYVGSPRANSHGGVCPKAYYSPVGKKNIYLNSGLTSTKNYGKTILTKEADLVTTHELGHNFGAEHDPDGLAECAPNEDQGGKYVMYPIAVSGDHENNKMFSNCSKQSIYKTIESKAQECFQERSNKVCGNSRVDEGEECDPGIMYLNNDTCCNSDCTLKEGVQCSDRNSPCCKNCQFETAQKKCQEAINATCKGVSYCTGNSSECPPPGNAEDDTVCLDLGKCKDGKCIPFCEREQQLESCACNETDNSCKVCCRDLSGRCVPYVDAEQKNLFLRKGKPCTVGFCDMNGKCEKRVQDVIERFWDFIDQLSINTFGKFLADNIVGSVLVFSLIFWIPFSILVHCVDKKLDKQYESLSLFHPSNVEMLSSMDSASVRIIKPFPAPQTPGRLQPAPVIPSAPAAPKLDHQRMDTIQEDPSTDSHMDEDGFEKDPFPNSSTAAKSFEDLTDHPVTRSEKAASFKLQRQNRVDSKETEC
1-phosphatidylinositol 4,5-bisphosphate phosphodiesterase gamma-1, sequence (P19174 whole entry): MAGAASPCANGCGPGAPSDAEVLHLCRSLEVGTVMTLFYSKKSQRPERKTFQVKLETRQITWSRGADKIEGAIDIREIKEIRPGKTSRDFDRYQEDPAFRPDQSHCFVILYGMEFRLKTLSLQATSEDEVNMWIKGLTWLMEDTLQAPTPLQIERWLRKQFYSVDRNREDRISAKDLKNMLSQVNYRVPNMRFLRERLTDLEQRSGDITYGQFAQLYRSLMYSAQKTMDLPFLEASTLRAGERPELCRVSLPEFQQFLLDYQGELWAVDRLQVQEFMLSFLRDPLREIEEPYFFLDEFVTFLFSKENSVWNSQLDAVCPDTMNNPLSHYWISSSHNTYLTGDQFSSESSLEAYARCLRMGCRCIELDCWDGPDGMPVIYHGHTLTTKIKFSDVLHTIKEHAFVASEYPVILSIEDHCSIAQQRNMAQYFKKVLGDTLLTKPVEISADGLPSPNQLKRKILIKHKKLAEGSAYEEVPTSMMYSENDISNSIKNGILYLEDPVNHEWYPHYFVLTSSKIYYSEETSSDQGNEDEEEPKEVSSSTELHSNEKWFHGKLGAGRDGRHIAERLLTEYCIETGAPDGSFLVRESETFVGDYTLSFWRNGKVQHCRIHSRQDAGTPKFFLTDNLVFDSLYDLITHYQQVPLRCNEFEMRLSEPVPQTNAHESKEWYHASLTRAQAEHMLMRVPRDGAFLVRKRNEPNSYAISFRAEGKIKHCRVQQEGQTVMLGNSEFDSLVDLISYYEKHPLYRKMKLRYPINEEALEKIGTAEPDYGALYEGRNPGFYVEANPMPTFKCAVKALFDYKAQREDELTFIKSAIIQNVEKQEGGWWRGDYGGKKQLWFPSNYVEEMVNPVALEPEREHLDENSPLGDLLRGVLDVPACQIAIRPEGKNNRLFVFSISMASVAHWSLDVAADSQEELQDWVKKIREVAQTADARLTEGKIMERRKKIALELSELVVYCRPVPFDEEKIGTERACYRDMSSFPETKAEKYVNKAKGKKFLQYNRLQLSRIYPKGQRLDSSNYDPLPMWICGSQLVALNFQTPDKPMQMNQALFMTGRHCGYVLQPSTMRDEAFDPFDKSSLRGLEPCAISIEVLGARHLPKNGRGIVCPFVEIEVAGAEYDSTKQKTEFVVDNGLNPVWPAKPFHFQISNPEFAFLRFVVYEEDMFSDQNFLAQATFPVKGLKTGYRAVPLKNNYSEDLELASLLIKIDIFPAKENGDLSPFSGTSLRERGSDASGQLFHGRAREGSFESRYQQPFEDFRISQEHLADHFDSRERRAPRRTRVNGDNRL
Intestinal-type alkaline phosphatase (Homo sapiens, UniProt P09923), sequence (P09923 whole entry): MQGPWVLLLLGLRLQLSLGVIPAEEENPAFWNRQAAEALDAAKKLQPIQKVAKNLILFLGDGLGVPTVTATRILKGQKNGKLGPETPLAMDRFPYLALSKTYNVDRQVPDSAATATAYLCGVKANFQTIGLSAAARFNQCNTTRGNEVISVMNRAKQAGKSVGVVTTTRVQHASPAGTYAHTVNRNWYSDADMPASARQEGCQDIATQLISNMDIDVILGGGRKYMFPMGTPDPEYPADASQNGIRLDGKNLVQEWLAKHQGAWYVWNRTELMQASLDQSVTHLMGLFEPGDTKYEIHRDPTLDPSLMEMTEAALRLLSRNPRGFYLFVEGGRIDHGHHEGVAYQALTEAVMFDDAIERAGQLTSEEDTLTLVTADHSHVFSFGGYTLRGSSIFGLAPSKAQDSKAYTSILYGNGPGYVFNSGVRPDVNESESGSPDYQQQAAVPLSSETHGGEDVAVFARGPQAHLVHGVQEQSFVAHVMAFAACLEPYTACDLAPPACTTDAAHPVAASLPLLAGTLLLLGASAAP
Large T antigen, sequence (P03070 whole entry): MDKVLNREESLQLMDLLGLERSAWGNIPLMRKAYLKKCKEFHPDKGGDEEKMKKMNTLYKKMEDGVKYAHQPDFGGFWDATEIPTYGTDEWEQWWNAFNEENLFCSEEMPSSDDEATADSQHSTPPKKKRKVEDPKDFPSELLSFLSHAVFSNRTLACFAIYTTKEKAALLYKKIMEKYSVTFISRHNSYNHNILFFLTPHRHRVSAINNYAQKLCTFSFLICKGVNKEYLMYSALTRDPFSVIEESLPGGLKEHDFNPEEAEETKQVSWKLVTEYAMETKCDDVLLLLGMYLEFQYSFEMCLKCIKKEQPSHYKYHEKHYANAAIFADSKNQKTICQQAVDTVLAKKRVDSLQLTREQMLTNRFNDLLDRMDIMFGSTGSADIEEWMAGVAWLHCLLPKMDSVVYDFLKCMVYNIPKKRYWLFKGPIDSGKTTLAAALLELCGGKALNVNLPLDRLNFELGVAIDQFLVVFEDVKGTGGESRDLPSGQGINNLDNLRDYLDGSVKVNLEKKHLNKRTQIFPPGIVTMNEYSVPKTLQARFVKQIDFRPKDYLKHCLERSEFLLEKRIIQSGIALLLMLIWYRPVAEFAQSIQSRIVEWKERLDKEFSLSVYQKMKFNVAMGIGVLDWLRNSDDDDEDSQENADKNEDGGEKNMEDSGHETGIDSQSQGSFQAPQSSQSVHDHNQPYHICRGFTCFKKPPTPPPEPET
Nonstructural protein 1, sequence (Q194T2 whole entry): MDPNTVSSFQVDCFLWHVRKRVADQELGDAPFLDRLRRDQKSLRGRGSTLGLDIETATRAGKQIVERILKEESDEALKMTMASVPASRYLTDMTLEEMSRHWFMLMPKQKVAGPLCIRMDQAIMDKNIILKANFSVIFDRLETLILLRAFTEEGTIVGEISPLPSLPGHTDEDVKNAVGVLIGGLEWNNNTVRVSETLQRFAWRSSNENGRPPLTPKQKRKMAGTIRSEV

For the molecule `Cc1c(C(=O)OC2CCC(C)CC2)[nH]c2c1C(=O)CCC2` (stereo not drawn), the EC50 in [1] was > 67.5 µM (inactive).

For `COC(=O)C(Cc1ccc(O)cc1)NC(=O)C(C)NC(=O)c1ccc(C(C)(C)C)cc1` (stereo not drawn), the IC50 in [2] and in [3] was > 123 µM (inactive) each time.

Turning to `S=C(Nc1cccc(Cl)c1)Nc1ccccc1Oc1ccccc1`, the AC50 (with HEK293; in test [4]) was 23.5 µM (active) in each case.

For `CO[C@H]1CN(C)C(=O)c2cc(NC(=O)Nc3cc(Cl)cc(Cl)c3)ccc2OC[C@@H](C)NC[C@H]1C`, the AC50 is 42.6 µM (active) in test [5] and > 52 µM (inactive) in test [6].

Turning to `Cc1cc(C)c(C)c(N=Nc2nc3ccccc3n2C)c1C`, the CC50 in test [7] was > 40 µM (active). Also, the results for the IC50 (on Nonstructural protein 1; in [8]) were 17.6 µM (active) and > 122 µM (inactive), respectively.

Consider `CC(C)C1C(=O)N(Cc2cn(CC3CCCCC3)nn2)CCS(=O)(=O)N1Cc1ccc(-c2ccccc2)cc1` (stereo not drawn), for which the IC50 in test [9] is 10.2 µM (inactive); in test [10], > 69.5 µM (inactive).

In the case of `Oc1ccc(-c2csc(Nc3cccc4ccccc34)n2)cc1O`, the IC50 was 66.2 µM (active) at Large T antigen; 1.63 µM (active) in test [11]; 78 µM (active) in [12]; 3.36 µM (active) in test [13]; > 100 µM (active) on Genome polyprotein. In the test on Vero [14], the CC50 was > 40 µM (active). The AC50 in test [15] was 1.58 µM (active); in test [16] it was 7.93 µM (active); on Caspase-6, 14.1 µM (active); in [17], 10.5 µM (active).

Take `O=C(N/N=C/c1ccc(-c2ccccc2[N+](=O)[O-])o1)c1cncc(Br)c1`: the EC50 in [18] is 6.71 µM (active).

In the case of `O=c1[nH]cnc2cc(-c3ccccc3)sc12`, the EC50 in test [1] was > 67.5 µM (inactive).

As for `Cc1nc2ccccn2c1C(=O)/C=C/c1ccc(F)cc1`, the values for the CC50 in the test with Vero [19] and with Vero [21] were 25.6 µM (active) and 18.7 µM (active), respectively. In the test with Vero [20], the IC50 was > 25 µM (active). For the same molecule, the AC50 in [22] is 0.76 µM (active).

Take `O=c1[nH]c2ccccc2c(=O)n1-c1ccc(Cl)cc1Cl`: the IC50 in test [2] and in [3] was > 122 µM (inactive) throughout.

`CCOc1ccc(NC2=NC(=O)S/C2=C\c2ccc(O)cc2)cc1`: the EC50 at Transthyretin was > 167 µM (inactive).

As for `O=C(COC(=O)c1ccc(Cl)c(S(=O)(=O)N2CCCCCC2)c1)Nc1ccccc1`, the IC50 in test [9] and in test [10] was > 69.5 µM (inactive) each time.

For the molecule `CCOC(=O)Cc1cc(O)n2nc(C)c(-c3ccc(Cl)cc3)c2n1`, the Ki on fMet-Leu-Phe receptor is 19 µM (inactive).

Regarding `Cc1ccc2c(c1)c1nc3ccccc3nc1n2C`, the EC50 in test [18] was 1 µM (active).

Regarding `CC(=O)c1cc(C(C)=O)c(C)nc1C`, the EC50 at Transthyretin is > 167 µM (inactive).

In the case of `C[C@@H]1CN([C@@H](C)CO)C(=O)c2cc(NS(=O)(=O)c3ccc(F)cc3)ccc2O[C@@H](C)CCCCO[C@@H]1CN(C)Cc1ccc2c(c1)OCO2`, the AC50 (in the test on HEK293; in [4]) was 28.3 µM (active) throughout.
